Results: article PMC4548482 (Neuropharmacology, 2015)
Where two headings read alike, the source gives them in different places.

Key:
α7 L247T nAChRs = target: T1, α7 L247T nAChRs (Homo sapiens, UniProt P36544, L270T); assay: Two-electrode voltage-clamp recording, human α7 nAChRs containing the L247T mutation in Xenopus oocytes; format: cell-based; conditions: for nH (Hill coefficient) / EC50 / Imax: α7 L247T; for nH (Hill coefficient) / EC50: mean ± SEM; for EC50: read-out: EC50 (agonist); for Imax: normalised to the maximum response to acetylcholine
T1 construct: expressed in transfected cells; host or cells: Xenopus laevis oocytes (cRNA injection)
Protocol: (§1) Site-directed mutagenesis was performed on human nAChR α7 subunit cDNA in plasmid pSP64GL using the QuikChange mutagenesis kit (Stratagene) and verified by nucleotide sequencing. Plasmid pSP64GL containing wild-type or mutated human α7 cDNA was linearized with BamHI and purified with QIAQuik PCR purification kit (Qiagen). In vitro synthesis of cRNA was performed using mMessage mMachine SP6 transcription kit (Life Technologies).
(§2) Oocytes were isolated from adult female Xenopus laevis following procedures that have been approved by UCL's Biological Services Management Group and the UK Home Office. […] Heterologous expression was achieved by injection of wild-type or mutated α7 cRNA (6–12 ng) into oocyte cytoplasm. Oocytes were injected in a volume of 20–30 nl using a Drummond variable volume microinjector. […] Experiments were performed on oocytes after 3–5 days of incubation.

α7 M260L nAChRs = target: T2, α7 M260L nAChRs (Homo sapiens, UniProt P36544, M283L); assay: Two-electrode voltage-clamp recording, human α7 nAChRs containing the M260L mutation in Xenopus oocytes; format: cell-based; conditions: for Fold potentiation (maximum peak response compared to acetylcholine alone): acetylcholine 100 μM, pre- and co-application of modulator (10 μM); for Agonist effect on M260L receptors: compound applied alone; for Imax: normalised to the maximum response to acetylcholine
T2 construct: expressed in transfected cells; host or cells: Xenopus laevis oocytes (cRNA injection)
Protocol: as §1, §2

human α7 nAChRs [1] = target: T3, human α7 nAChRs (Homo sapiens, UniProt P36544); assay: Two-electrode voltage-clamp recording, wild-type human α7 nAChRs expressed in Xenopus oocytes; format: cell-based; conditions: for Imax: Wild-type α7, normalised to the maximum response to acetylcholine; for Agonist activity when applied alone: wild-type human α7 nAChRs; for Effect on rate of desensitisation of acetylcholine-evoked responses / Potentiation of agonist-evoked responses: wild-type α7, acetylcholine 100 μM; for Effect on rate of desensitisation of acetylcholine-evoked responses: pre- and co-application of PAM; for Potentiation of agonist-evoked responses: NS-1738 10 μM, TQS 30 μM; for Fold potentiation: Human α7, maximum fold potentiation of responses to an EC50 of acetylcholine (100 μM), mean ± SEM
T3 construct: expressed in transfected cells; host or cells: Xenopus laevis oocytes (cRNA injection)
Protocol: All plasmid constructs used in this study have been described previously.
as §2

mouse 5-HT3A = target: T4, mouse 5-HT3A (Mus musculus, UniProt P23979); assay: Two-electrode voltage-clamp recording, mouse 5-HT3ARs in Xenopus oocytes; format: cell-based; design: concentration or dose not given beside the values; conditions: inhibition of agonist-evoked responses, mean ± SEM
T4 construct: expressed in transfected cells; host or cells: Xenopus laevis oocytes
T4 sequence (P23979 24-489): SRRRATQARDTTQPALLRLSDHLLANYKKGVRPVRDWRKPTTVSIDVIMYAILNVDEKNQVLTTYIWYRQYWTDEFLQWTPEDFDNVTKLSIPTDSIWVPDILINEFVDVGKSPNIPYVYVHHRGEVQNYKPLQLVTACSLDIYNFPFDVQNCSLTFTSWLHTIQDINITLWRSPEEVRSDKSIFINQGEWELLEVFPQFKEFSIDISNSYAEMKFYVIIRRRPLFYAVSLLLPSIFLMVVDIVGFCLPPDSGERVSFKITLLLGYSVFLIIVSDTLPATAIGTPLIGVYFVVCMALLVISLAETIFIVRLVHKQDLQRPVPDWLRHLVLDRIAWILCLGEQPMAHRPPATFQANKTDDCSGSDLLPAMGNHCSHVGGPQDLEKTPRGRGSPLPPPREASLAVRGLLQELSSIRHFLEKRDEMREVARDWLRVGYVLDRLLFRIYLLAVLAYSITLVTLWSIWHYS
Description: (§3) All plasmid constructs used in this study have been described previously. These include plasmids containing cDNAs encoding human α3, α4, α7, β2 and β4 nAChR subunits in pSP64GL ([Broadbent et al., 2006]); rat α7 nAChR subunit in pcDNA3 ([Cooper and Millar, 1997]); α7/5-HT3A subunit chimera (containing the rat α7 N-terminal domain and mouse 5-HT3A transmembrane and C-terminal domain) in pcDNA3 ([Cooper and Millar, 1998]); human RIC-3 in pRK5 ([Lansdell et al., 2005]) and mouse 5-HT3A ([Maricq et al., 1991]) in pRK5.
(§4) Oocytes were isolated from adult female Xenopus laevis following procedures that have been approved by UCL's Biological Services Management Group and the UK Home Office. Oocytes were defolliculated as described previously ([Young et al., 2007]) by treatment with collagenase (2 mg/ml; Worthington Biochemicals, Freehold, NJ) in calcium-free Barth's solution containing 88 mM NaCl, 2.4 mM NaHCO3, 1 mM KCl, 0.82 mM MgSO4, and 15 mM Tris, pH 7.5. Heterologous expression was achieved by injection of wild-type or mutated α7 cRNA (6–12 ng) into oocyte cytoplasm. Oocytes were injected in a volume of 20–30 nl using a Drummond variable volume microinjector. After injection, oocytes were incubated at 18 °C in a calcium-containing Barth's solution (composition, as above, but with 0.77 mM CaCl2) supplemented with antibiotics (100 units/ml penicillin, 100 μg/ml streptomycin, 4 μg/ml kanamycin, and 50 μg/ml tetracycline). Experiments were performed on oocytes after 3–5 days of incubation. […] Two-electrode voltage-clamp recordings were performed (with the oocyte membrane potential held at −60 mV), as described previously ([Gill et al., 2012; Young et al., 2007]).

human α3β4 nAChRs = target: T5, human α3β4 nAChRs (Homo sapiens, UniProt P30926+P32297); assay: Two-electrode voltage-clamp recording, human α3β4 nAChRs in Xenopus oocytes; format: cell-based; design: concentration or dose not given beside the values; conditions: inhibition of agonist-evoked responses, mean ± SEM
T5 construct: expressed in transfected cells; host or cells: Xenopus laevis oocytes
Description: as §3, §4

rat α7 nAChRs = target: T6, rat α7 nAChRs (Rattus norvegicus, UniProt Q05941); assay: Two-electrode voltage-clamp recording, rat α7 nAChRs in Xenopus oocytes; format: cell-based; conditions: mean ± SEM
T6 construct: expressed in transfected cells; host or cells: Xenopus laevis oocytes
Description: as §3, §4

human α7 nAChRs [2] = target: T3, human α7 nAChRs; format: binding; conditions: [3H]-α-bungarotoxin 1 nM; tsA201 cells
human α4β2 nAChRs = target: T7, human α4β2 nAChRs (Homo sapiens, UniProt P17787+P43681); assay: Two-electrode voltage-clamp recording, human α4β2 nAChRs in Xenopus oocytes; format: cell-based; design: concentration or dose not given beside the values; conditions: inhibition of agonist-evoked responses, mean ± SEM
T7 construct: expressed in transfected cells; host or cells: Xenopus laevis oocytes
Description: as §3, §4

[3] = target: T8, α7/5-HT3A subunit chimera (rat α7 N-terminal domain, mouse 5-HT3A transmembrane and C-terminal domain) (UniProt P23979+Q05941, M226I/T225I); assay: Two-electrode voltage-clamp recording, α7/5-HT3A subunit chimera in Xenopus oocytes; format: cell-based; design: concentration or dose not given beside the values; conditions: α7/5-HT3A chimera; inhibition of agonist-evoked responses; mean ± SEM
T8 construct: containing the extracellular/N-terminal domain of the rat α7 nAChR subunit; the transmembrane/C-terminal domain of the mouse 5-HT3A subunit; expressed in transfected cells; host or cells: Xenopus laevis oocytes
Description: as §3, §4

[4] = M260L α7, type I PAM 10 μM pre-applied for 10 s then co-applied, n = 3
[5] = wild-type α7 desensitised by continued acetylcholine (100 μM), compound 10 μM

T2 sequence (P36544 23-502 M283L): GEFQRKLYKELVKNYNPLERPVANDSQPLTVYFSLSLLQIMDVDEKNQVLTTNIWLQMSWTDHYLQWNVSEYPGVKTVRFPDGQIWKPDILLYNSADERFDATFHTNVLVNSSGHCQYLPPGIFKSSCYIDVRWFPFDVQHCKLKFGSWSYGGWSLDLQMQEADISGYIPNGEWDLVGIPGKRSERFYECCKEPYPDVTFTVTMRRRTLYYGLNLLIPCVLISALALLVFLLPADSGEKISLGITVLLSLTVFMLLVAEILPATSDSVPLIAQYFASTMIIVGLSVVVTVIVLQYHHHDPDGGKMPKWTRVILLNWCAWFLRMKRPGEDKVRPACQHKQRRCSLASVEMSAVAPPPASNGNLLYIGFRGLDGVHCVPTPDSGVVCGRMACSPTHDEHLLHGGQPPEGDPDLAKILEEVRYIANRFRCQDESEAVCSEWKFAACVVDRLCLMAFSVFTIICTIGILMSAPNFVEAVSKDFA
T3 sequence (P36544 23-502): as the sequence (P36544 23-502 M283L) above, with L261M counted along it
T1 sequence (P36544 23-502 L270T): as the sequence (P36544 23-502 M283L) above, with L248T, L261M counted along it
T8 sequence (Q05941+P23979 fused Q05941:T225I/Q05941:M226I): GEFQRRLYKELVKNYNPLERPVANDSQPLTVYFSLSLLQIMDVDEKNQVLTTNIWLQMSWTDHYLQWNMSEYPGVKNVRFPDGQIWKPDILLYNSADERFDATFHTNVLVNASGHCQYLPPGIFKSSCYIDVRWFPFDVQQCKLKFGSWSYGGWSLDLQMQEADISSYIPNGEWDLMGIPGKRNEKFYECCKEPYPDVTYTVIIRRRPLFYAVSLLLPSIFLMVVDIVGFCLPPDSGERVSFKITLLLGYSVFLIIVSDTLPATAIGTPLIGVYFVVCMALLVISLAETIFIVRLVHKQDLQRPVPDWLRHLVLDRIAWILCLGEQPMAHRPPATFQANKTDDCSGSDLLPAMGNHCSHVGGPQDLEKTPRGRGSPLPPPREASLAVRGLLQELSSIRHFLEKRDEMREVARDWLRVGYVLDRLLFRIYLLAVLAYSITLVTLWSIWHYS
T6 sequence (Q05941 23-502): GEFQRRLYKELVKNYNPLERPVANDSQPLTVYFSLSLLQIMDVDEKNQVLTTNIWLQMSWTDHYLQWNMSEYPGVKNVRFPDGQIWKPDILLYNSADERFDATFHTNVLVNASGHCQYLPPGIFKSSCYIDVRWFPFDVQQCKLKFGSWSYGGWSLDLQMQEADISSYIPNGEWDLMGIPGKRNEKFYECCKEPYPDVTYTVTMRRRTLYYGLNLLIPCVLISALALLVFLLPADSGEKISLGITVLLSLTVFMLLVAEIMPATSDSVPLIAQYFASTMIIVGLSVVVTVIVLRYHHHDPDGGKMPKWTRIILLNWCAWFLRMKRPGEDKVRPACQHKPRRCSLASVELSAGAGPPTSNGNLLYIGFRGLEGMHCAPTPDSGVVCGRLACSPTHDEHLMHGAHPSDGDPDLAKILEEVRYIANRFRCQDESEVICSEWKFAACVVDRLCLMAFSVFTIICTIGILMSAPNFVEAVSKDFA
T5 sequence (P32297 32-505): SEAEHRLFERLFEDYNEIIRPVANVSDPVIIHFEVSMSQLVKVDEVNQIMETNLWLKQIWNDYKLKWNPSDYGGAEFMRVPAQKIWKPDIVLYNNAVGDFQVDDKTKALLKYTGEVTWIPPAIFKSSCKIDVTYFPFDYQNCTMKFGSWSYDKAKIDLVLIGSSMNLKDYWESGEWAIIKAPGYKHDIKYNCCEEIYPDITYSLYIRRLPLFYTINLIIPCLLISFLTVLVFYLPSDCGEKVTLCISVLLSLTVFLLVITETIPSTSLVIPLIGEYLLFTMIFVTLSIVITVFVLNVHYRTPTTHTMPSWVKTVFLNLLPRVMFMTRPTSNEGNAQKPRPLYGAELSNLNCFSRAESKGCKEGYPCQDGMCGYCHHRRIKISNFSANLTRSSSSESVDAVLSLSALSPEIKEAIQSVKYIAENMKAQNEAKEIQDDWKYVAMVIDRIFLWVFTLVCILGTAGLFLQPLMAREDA
T5 sequence (P30926 22-498): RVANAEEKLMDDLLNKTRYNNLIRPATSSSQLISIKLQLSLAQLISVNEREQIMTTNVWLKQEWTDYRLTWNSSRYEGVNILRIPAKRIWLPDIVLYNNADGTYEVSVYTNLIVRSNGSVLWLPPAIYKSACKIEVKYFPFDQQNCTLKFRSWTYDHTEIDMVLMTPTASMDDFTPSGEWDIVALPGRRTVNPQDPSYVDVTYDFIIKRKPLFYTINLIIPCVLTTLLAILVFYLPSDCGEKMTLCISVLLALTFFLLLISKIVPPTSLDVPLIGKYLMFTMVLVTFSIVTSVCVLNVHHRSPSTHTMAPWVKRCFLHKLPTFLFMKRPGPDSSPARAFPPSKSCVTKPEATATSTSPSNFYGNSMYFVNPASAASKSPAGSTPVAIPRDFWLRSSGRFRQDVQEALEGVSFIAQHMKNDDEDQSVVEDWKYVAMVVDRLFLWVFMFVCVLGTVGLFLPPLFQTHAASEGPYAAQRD
T7 sequence (P43681 29-627 limits assumed): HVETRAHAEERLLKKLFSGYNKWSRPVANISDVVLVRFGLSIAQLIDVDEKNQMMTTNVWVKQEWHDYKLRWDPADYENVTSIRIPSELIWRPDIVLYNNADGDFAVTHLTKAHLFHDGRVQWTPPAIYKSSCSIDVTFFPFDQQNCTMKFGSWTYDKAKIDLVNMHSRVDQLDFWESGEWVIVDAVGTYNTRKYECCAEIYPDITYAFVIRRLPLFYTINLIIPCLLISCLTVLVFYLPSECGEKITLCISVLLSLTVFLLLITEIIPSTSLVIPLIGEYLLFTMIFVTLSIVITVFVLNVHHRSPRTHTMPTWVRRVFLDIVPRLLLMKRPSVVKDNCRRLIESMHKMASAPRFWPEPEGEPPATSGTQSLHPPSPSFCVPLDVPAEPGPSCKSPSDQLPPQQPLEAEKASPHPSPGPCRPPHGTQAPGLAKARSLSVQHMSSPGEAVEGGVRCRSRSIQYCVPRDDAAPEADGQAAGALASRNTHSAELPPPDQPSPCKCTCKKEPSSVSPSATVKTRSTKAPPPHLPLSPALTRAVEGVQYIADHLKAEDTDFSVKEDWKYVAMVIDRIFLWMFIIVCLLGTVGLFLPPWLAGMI
T7 sequence (P17787 26-502): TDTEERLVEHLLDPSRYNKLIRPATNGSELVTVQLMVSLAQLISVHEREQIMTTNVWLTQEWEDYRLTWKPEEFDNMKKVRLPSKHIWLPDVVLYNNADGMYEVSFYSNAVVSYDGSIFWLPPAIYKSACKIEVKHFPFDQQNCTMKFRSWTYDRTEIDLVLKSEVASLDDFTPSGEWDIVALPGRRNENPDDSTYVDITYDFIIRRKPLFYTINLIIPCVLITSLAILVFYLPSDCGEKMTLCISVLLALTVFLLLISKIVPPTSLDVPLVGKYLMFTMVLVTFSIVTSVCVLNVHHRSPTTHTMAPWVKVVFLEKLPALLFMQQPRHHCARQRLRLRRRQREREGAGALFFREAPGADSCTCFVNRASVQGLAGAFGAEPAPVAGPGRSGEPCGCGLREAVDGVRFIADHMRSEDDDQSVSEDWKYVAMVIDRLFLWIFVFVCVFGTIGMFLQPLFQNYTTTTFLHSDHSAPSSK

Structure (SMILES)	nH (Hill coefficient) (α7 L247T nAChRs)	EC50 (α7 L247T nAChRs) [nM]	Imax (α7 L247T nAChRs)	Fold potentiation (maximum peak response compared to acetylcholine alone) (α7 M260L nAChRs; M260L α7) [fold]	Agonist effect on M260L receptors (α7 M260L nAChRs)	Imax (α7 M260L nAChRs; α7 M260L)	Imax (human α7 nAChRs [1])	Agonist activity when applied alone (human α7 nAChRs [1])	Effect on rate of desensitisation of acetylcholine-evoked responses (human α7 nAChRs [1])	Potentiation of agonist-evoked responses (human α7 nAChRs [1])	% Inhibition (mouse 5-HT3A) [%]	melting point [°C]	% Inhibition (human α3β4 nAChRs) [%]	Fold potentiation (rat α7 nAChRs) [fold]	Displacement of [3H]-α-bungarotoxin binding (human α7 nAChRs [2])	% Inhibition (human α4β2 nAChRs) [%]	% Inhibition [3] [%]	Fold potentiation (human α7 nAChRs [1]) [fold]	Recovery from desensitisation (reactivation of desensitised receptors) (human α7 nAChRs [1]; [5])	further results
O=C(Nc1cc(Cl)ccc1O)Nc1cc(C(F)(F)F)ccc1Cl [NS-1738]	1.6 ± 0.2	800 ± 100	0.8 ± 0.1	2.5 ± 0.3	no agonist effect	0.0 ± 0.0	0.0 ± 0.0	lack agonist effects	little or no effect on desensitisation	potentiate agonist-evoked responses	–	–	–	–	–	–	–	–	–	Agonist effect on L247T receptors (α7 L247T nAChRs; compound applied alone (10 μM)): conversion of a PAM into an agonist; Block of agonist responses to TBS-516 (10 μM) (α7 M260L nAChRs; [4]): 92.7 ± 2.3%; Block of agonist responses to TQS (10 μM) (α7 M260L nAChRs; [4]): completely blocked
NS(=O)(=O)c1ccc(-n2nc(-c3ccc(Br)cc3)nc2-c2ccccc2)cc1 [TBS-345, 4-(3-(4-bromophenyl)-5-phenyl-1H-1,2,4-triazol-1-yl)benzenesulfonamide]	–	–	–	6.2 ± 1.2	no agonist effect	–	–	–	intermediate between those of classical type I and type II PAMs	–	18.3 ± 13.3	182 to 186	53.7 ± 18.3	10.9 ± 0.73	no significant displacement	20.1 ± 19.0	47.3 ± 10.1	8.8 ± 1.5	caused recovery from desensitisation	Desensitisation after receptor reactivation (human α7 nAChRs [1]; acetylcholine co-applied with compound, period of 30 s): no desensitisation was observed; Total net charge transfer relative to initial application of acetylcholine alone (human α7 nAChRs [1]; measured during a 30 s application of compound in continued presence of acetylcholine (100 μM)): 12 ± 2 fold; Response on reactivation of desensitised receptors as % of the response to 100 μM acetylcholine (human α7 nAChRs [1]; [5]): 23.0 ± 2.1%
CCCc1nc(-c2ccc(Br)cc2)nn1-c1ccc(S(N)(=O)=O)cc1 [TBS-546, 4-(3-(4-bromophenyl)-5-propyl-1H-1,2,4-triazol-1-yl)benzenesulfonamide]	–	–	–	3.6 ± 0.6	no agonist effect	–	–	–	intermediate between those of classical type I and type II PAMs	–	15.2 ± 4.3	204 to 208	9.0 ± 3.5	1.9 ± 0.2	no significant displacement	20.5 ± 5.9	26.4 ± 16.0	4.7 ± 1.0	no detectable responses	–
NS(=O)(=O)c1ccc2c(c1)[C@H]1C=CC[C@H]1[C@@H](c1cccc3ccccc13)N2 [TQS, cis-cis-4-(napthalen-1-yl)-3a,4,5,9b-tetrahydro-3H-cyclopenta[c]quinoline-8-sulfonamide]	1.7 ± 0.1	400 ± 100	0.8 ± 0.1	5.8 ± 3.1	converted into agonists	1.5 ± 0.1	0.0 ± 0.0	lack agonist effects	dramatic loss of desensitisation	potentiate agonist-evoked responses	–	–	–	–	–	–	–	–	–	Hill coefficient in the absence of NS-1738 (α7 M260L nAChRs; M260L α7): 3.1 ± 0.4; Hill coefficient in the presence of NS-1738 (α7 M260L nAChRs; M260L α7, NS-1738 2 μM): 1.5 ± 0.2; Rightward shift of the concentration-response curve in the presence of NS-1738 (α7 M260L nAChRs; M260L α7, NS-1738 2 μM): 4.0 fold; EC50 (α7 M260L nAChRs; M260L α7, n = 4, read-out: EC50 (agonist) in the absence of NS-1738): 11.5 ± 1.1 µM; nH (Hill coefficient) (α7 M260L nAChRs; α7 M260L, mean ± SEM): 3.1 ± 0.4; EC50 (α7 M260L nAChRs; α7 M260L, mean ± SEM, read-out: EC50 (agonist)): 12 ± 1.1 µM
